Laboratory results published in patent publication US4755513A, “Antimicrobial 1-substituted phenyl-4-oxoquinoline-3-carboxylic acid compounds” (Otsuka Pharmaceutical Company, Limited, priority 1985, dated 1988).
Like-named read-outs stand apart in the source and are kept apart here. Each block holds one compound with its values, some of them ahead of it.

Legend:
[1] = system: Staphylococcus pyrogens IID S-23; assay: MIC by serial dilution method on agar plate; assay type: cell-based
Excerpt: (§1) The microorganisms were used in a concentration of 1×10^8 cells/ml (O.D. 660 mμ, 0.07-0.16) and 1×10^6 cells/ml (100 folds dilution).

[2] = system: Staphylococcus aureus FDA 209P; assay: MIC by serial dilution method on agar plate; assay type: cell-based
Excerpt: as §1

[3] = system: Bacillus subtilis ATCC 6633; assay: MIC by serial dilution method on agar plate; assay type: cell-based
Excerpt: (§2) Chemotherapy, 22, 1126-1128 (1974)]. The microorganisms were used in a concentration of 1×10^8 cells/ml (O.D. 660 mμ, 0.07-0.16) and 1×10^6 cells/ml (100 folds dilution).

[4] = system: Escherichia coli NIHJ JC-2; assay: MIC by serial dilution method on agar plate; assay type: cell-based
Excerpt: as §2

[5] = system: Klebsiella pneumoniae NCTC 9632; assay: MIC by serial dilution method on agar plate; assay type: cell-based
Excerpt: as §2

[6] = system: Acinetobacter calcoaceticus AC-54; assay: MIC by serial dilution method on agar plate; assay type: cell-based
Excerpt: as §2

[7] = system: Proteus morganii IID Kono; assay: MIC by serial dilution method on agar plate; assay type: cell-based
Excerpt: as §2

Escherichia coli No. 29 = assay: MIC by serial dilution method on agar plate; assay type: cell-based
Excerpt: as §2

[8] = system: Pseudomonas aeruginosa ATCC 10145; assay: MIC by serial dilution method on agar plate; assay type: cell-based
Excerpt: as §2

[9] = system: Serratia marcescens IFO 12648; assay: MIC by serial dilution method on agar plate; assay type: cell-based
Excerpt: as §2

[10] = system: Proteus inconstans IFO 12930; assay: MIC by serial dilution method on agar plate; assay type: cell-based
Excerpt: as §2

[11] = system: Pseudomonas aeruginosa E-2; assay: MIC by serial dilution method on agar plate; assay type: cell-based
Excerpt: as §2

[12] = Absorption by oral administration in monkey (plasma concentration, thin layer cup bio-assay); assay type: in vivo; conditions: 100 mg/kg;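 note: plasma concentration in γ/ml (µg/mL) rather than the printed ng/mL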
Experimental: The test compounds were dissolved in 0.1N hydrochloric acid or suspended in 0.5% sodium carboxymethyl cellulose solution. The solution or suspension was administered into stomach of monkey (two monkeys) with cathetel. After the administration of test compounds, the blood was collected from the lower limbs vein at a fixed interval with a syringe treated with heparin. The collected blood was centrifuged at 3,000 r.p.m. for 10 minutes to separate the plasma. The concentration of the test compound was measured by a thin layer cup method (a bio-assay), wherein Bacillus subtilis ATCC 6633 was used as a bacteria for determination. Based on a standard curve, the concentration of test compound in plasma was calculated.

- minimum inhibitory concentration (MIC) ([1]; 1 × 10^6 cells/ml): 3.12
- minimum inhibitory concentration (MIC) ([1]; 1 × 10^8 cells/ml): 6.25
- minimum inhibitory concentration (MIC) ([2]; 1 × 10^6 cells/ml): 0.195
- minimum inhibitory concentration (MIC) ([2]; 1 × 10^8 cells/ml): 0.39
- minimum inhibitory concentration (MIC) ([3]; 1 × 10^6 cells/ml): 0.097
- minimum inhibitory concentration (MIC) ([3]; 1 × 10^8 cells/ml): 0.195
- minimum inhibitory concentration (MIC) ([4]; 1 × 10^6 cells/ml): 0.195
- minimum inhibitory concentration (MIC) ([4]; 1 × 10^8 cells/ml): 0.195
- minimum inhibitory concentration (MIC) ([5]; 1 × 10^6 cells/ml): 0.195
- minimum inhibitory concentration (MIC) ([5]; 1 × 10^8 cells/ml): 0.195
- minimum inhibitory concentration (MIC) ([6]; 1 × 10^6 cells/ml): 0.39
- minimum inhibitory concentration (MIC) ([6]; 1 × 10^8 cells/ml): 0.39
- minimum inhibitory concentration (MIC) ([7]; 1 × 10^6 cells/ml): 0.78
- minimum inhibitory concentration (MIC) ([7]; 1 × 10^8 cells/ml): 0.78
- minimum inhibitory concentration (MIC) (Escherichia coli No. 29; 1 × 10^6 cells/ml): 0.097
- minimum inhibitory concentration (MIC) (Escherichia coli No. 29; 1 × 10^8 cells/ml): 0.195
- minimum inhibitory concentration (MIC) ([8]; 1 × 10^6 cells/ml): 3.12
- minimum inhibitory concentration (MIC) ([8]; 1 × 10^8 cells/ml): 3.12
- minimum inhibitory concentration (MIC) ([9]; 1 × 10^6 cells/ml): 0.78
- minimum inhibitory concentration (MIC) ([9]; 1 × 10^8 cells/ml): 3.12
- minimum inhibitory concentration (MIC) ([10]; 1 × 10^6 cells/ml): 3.12
- minimum inhibitory concentration (MIC) ([10]; 1 × 10^8 cells/ml): 3.12
- minimum inhibitory concentration (MIC) ([11]; 1 × 10^6 cells/ml): 3.12
- minimum inhibitory concentration (MIC) ([11]; 1 × 10^8 cells/ml): 3.12
SMILES: CN1CCN(c2cc3c(cc2F)c(=O)c(C(=O)O)cn3-c2ccc(F)cc2)CC1 [A]

- minimum inhibitory concentration (MIC) ([1]; 1 × 10^6 cells/ml): 3.12
- minimum inhibitory concentration (MIC) ([1]; 1 × 10^8 cells/ml): 6.25
- minimum inhibitory concentration (MIC) ([2]; 1 × 10^6 cells/ml): 0.195
- minimum inhibitory concentration (MIC) ([2]; 1 × 10^8 cells/ml): 0.39
- minimum inhibitory concentration (MIC) ([3]; 1 × 10^6 cells/ml): 0.097
- minimum inhibitory concentration (MIC) ([3]; 1 × 10^8 cells/ml): 0.195
- minimum inhibitory concentration (MIC) ([4]; 1 × 10^6 cells/ml): < 0.048
- minimum inhibitory concentration (MIC) ([4]; 1 × 10^8 cells/ml): 0.097
- minimum inhibitory concentration (MIC) ([5]; 1 × 10^6 cells/ml): < 0.048
- minimum inhibitory concentration (MIC) ([5]; 1 × 10^8 cells/ml): 0.097
- minimum inhibitory concentration (MIC) ([6]; 1 × 10^6 cells/ml): 0.195
- minimum inhibitory concentration (MIC) ([6]; 1 × 10^8 cells/ml): 0.39
- minimum inhibitory concentration (MIC) ([7]; 1 × 10^6 cells/ml): 0.195
- minimum inhibitory concentration (MIC) ([7]; 1 × 10^8 cells/ml): 0.195
- minimum inhibitory concentration (MIC) (Escherichia coli No. 29; 1 × 10^6 cells/ml): < 0.048
- minimum inhibitory concentration (MIC) (Escherichia coli No. 29; 1 × 10^8 cells/ml): 0.097
- minimum inhibitory concentration (MIC) ([8]; 1 × 10^6 cells/ml): 0.78
- minimum inhibitory concentration (MIC) ([8]; 1 × 10^8 cells/ml): 1.56
- minimum inhibitory concentration (MIC) ([9]; 1 × 10^6 cells/ml): 0.195
- minimum inhibitory concentration (MIC) ([9]; 1 × 10^8 cells/ml): 0.39
- minimum inhibitory concentration (MIC) ([10]; 1 × 10^6 cells/ml): 0.78
- minimum inhibitory concentration (MIC) ([10]; 1 × 10^8 cells/ml): 0.78
- minimum inhibitory concentration (MIC) ([11]; 1 × 10^6 cells/ml): 0.78
- minimum inhibitory concentration (MIC) ([11]; 1 × 10^8 cells/ml): 0.78
SMILES: O=C(O)c1cn(-c2ccc(F)cc2)c2cc(N3CCNCC3)c(F)cc2c1=O [B]

SMILES: CN1CCN(c2cc3c(cc2F)c(=O)c(C(=O)O)cn3-c2ccc(O)cc2)CC1 [C]
- minimum inhibitory concentration (MIC) ([1]; 1 × 10^6 cells/ml): 0.78
- minimum inhibitory concentration (MIC) ([1]; 1 × 10^8 cells/ml): 1.56
- minimum inhibitory concentration (MIC) ([2]; 1 × 10^6 cells/ml): < 0.048
- minimum inhibitory concentration (MIC) ([2]; 1 × 10^8 cells/ml): 0.097
- concentration at 0.5 h ([12]; Run 1, 0.5 hour, read-out: Amount of test compd. in plasma): 360 ng/mL
- concentration at 1 h ([12]; Run 1, 1 hour, read-out: Amount of test compd. in plasma): 490 ng/mL
- concentration at 2 h ([12]; Run 1, 2 hour, read-out: Amount of test compd. in plasma): 650 ng/mL
- concentration at 4 h ([12]; Run 1, 4 hour, read-out: Amount of test compd. in plasma): 960 ng/mL
- concentration at 7 h ([12]; Run 1, 7 hour, read-out: Amount of test compd. in plasma): 950 ng/mL
- concentration at 24 h ([12]; Run 1, 24 hour, read-out: Amount of test compd. in plasma): 900 ng/mL
- concentration at 0.5 h ([12]; Run 2, 0.5 hour, read-out: Amount of test compd. in plasma): < 390 ng/mL
- concentration at 1 h ([12]; Run 2, 1 hour, read-out: Amount of test compd. in plasma): < 390 ng/mL
- concentration at 2 h ([12]; Run 2, 2 hour, read-out: Amount of test compd. in plasma): < 390 ng/mL
- concentration at 4 h ([12]; Run 2, 4 hour, read-out: Amount of test compd. in plasma): < 390 ng/mL
- concentration at 7 h ([12]; Run 2, 7 hour, read-out: Amount of test compd. in plasma): < 390 ng/mL
- concentration at 24 h ([12]; Run 2, 24 hour, read-out: Amount of test compd. in plasma): < 390 ng/mL
- concentration at 0.5 h ([12]; average of two runs, 0.5 hour, read-out: Amount of test compd. in plasma, Average): < 280 ng/mL
- concentration at 1 h ([12]; average of two runs, 1 hour, read-out: Amount of test compd. in plasma, Average): < 350 ng/mL
- concentration at 2 h ([12]; average of two runs, 2 hour, read-out: Amount of test compd. in plasma, Average): < 430 ng/mL
- concentration at 4 h ([12]; average of two runs, 4 hour, read-out: Amount of test compd. in plasma, Average): < 580 ng/mL
- concentration at 7 h ([12]; average of two runs, 7 hour, read-out: Amount of test compd. in plasma, Average): < 580 ng/mL
- concentration at 24 h ([12]; average of two runs, 24 hour, read-out: Amount of test compd. in plasma, Average): < 550 ng/mL
- minimum inhibitory concentration (MIC) ([3]; 1 × 10^6 cells/ml): 0.097
- minimum inhibitory concentration (MIC) ([3]; 1 × 10^8 cells/ml): 0.097
- minimum inhibitory concentration (MIC) ([4]; 1 × 10^6 cells/ml): 0.097
- minimum inhibitory concentration (MIC) ([4]; 1 × 10^8 cells/ml): 0.097
- minimum inhibitory concentration (MIC) ([5]; 1 × 10^6 cells/ml): < 0.048
- minimum inhibitory concentration (MIC) ([5]; 1 × 10^8 cells/ml): 0.097
- minimum inhibitory concentration (MIC) ([6]; 1 × 10^6 cells/ml): 0.195
- minimum inhibitory concentration (MIC) ([6]; 1 × 10^8 cells/ml): 0.39
- minimum inhibitory concentration (MIC) ([7]; 1 × 10^6 cells/ml): 0.39
- minimum inhibitory concentration (MIC) ([7]; 1 × 10^8 cells/ml): 0.39
- minimum inhibitory concentration (MIC) (Escherichia coli No. 29; 1 × 10^6 cells/ml): < 0.048
- minimum inhibitory concentration (MIC) (Escherichia coli No. 29; 1 × 10^8 cells/ml): 0.097
- minimum inhibitory concentration (MIC) ([8]; 1 × 10^6 cells/ml): 0.78
- minimum inhibitory concentration (MIC) ([8]; 1 × 10^8 cells/ml): 1.56
- minimum inhibitory concentration (MIC) ([9]; 1 × 10^6 cells/ml): 0.195
- minimum inhibitory concentration (MIC) ([9]; 1 × 10^8 cells/ml): 0.39
- minimum inhibitory concentration (MIC) ([10]; 1 × 10^6 cells/ml): 0.39
- minimum inhibitory concentration (MIC) ([10]; 1 × 10^8 cells/ml): 0.78
- minimum inhibitory concentration (MIC) ([11]; 1 × 10^6 cells/ml): 0.39
- minimum inhibitory concentration (MIC) ([11]; 1 × 10^8 cells/ml): 0.78
